Experimental data reported in ChEMBL document CHEMBL5291721, “A preclinical secondary pharmacology resource illuminates target-adverse drug reaction associations of marketed drugs” (Nat Commun, 2023).

Legend:
[1] = molecular target: Sodium-dependent dopamine transporter (Homo sapiens, UniProt Q01959)
D(3) dopamine receptor = D(3) dopamine receptor (Homo sapiens, UniProt P35462)
Thromboxane A2 receptor [2] = molecular target: T1, Thromboxane A2 receptor (Homo sapiens, UniProt P21731); type: functional, cell-based
T1 sequence (P21731 whole entry): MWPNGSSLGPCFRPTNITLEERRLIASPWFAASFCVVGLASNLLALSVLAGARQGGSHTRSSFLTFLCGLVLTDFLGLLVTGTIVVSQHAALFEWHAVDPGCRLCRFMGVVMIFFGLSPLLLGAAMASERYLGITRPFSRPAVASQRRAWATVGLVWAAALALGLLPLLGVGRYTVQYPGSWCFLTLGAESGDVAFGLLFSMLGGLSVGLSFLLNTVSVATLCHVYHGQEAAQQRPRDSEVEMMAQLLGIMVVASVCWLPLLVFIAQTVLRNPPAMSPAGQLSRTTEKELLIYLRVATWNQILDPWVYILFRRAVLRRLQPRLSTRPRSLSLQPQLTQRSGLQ

[3] = molecular target: Sodium-dependent noradrenaline transporter (Homo sapiens, UniProt P23975)
[4] = molecular target: T2, Prostaglandin G/H synthase 1 (Homo sapiens, UniProt P23219); type: functional
T2 sequence (P23219 whole entry): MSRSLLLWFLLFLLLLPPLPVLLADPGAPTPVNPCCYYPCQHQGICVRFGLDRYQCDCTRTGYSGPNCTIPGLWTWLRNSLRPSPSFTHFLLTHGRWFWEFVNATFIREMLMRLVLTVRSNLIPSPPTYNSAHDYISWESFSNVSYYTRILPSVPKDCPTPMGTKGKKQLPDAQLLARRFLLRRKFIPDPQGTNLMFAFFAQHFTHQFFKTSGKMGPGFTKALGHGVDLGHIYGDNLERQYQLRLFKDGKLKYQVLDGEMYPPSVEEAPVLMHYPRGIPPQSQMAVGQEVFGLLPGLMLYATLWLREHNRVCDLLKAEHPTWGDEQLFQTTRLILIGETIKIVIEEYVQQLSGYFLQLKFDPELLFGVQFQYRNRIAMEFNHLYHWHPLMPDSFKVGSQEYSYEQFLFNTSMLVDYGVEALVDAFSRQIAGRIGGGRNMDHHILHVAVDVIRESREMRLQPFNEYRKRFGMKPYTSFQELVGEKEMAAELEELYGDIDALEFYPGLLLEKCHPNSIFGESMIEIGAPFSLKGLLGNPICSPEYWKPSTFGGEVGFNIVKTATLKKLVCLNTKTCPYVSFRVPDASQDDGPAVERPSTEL

[5] = molecular target: Sodium-dependent serotonin transporter (Homo sapiens, UniProt P31645)
Adenosine receptor A3 = molecular target: T3, Adenosine receptor A3 (Homo sapiens, UniProt P0DMS8)
T3 sequence (P0DMS8 whole entry): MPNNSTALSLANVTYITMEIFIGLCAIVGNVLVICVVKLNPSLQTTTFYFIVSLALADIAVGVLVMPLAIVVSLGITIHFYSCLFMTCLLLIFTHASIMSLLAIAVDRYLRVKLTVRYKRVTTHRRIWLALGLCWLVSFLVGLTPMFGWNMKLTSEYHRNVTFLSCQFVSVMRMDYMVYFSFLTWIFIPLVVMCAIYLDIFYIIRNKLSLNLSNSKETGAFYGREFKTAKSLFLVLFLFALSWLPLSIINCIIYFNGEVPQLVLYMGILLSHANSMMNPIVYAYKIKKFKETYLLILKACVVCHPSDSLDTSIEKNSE

[6] = molecular target: T4, Alpha-1A adrenergic receptor (Homo sapiens, UniProt P35348); type: functional, cell-based
T4 sequence (P35348 whole entry): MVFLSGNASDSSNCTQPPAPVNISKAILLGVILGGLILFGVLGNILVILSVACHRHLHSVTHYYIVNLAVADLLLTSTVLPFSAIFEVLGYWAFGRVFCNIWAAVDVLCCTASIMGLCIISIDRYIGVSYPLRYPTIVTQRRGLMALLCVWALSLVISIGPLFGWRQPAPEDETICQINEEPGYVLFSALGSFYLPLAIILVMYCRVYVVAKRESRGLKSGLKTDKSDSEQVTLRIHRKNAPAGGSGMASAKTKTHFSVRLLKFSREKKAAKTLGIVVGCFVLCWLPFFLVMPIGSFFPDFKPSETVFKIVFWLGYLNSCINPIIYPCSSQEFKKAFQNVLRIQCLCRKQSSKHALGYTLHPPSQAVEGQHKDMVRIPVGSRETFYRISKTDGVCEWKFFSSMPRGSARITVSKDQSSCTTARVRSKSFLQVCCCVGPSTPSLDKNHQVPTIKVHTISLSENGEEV

[7] = molecular target: cGMP-inhibited 3',5'-cyclic phosphodiesterase 3A (Homo sapiens, UniProt Q14432); type: functional
[8] = molecular target: 3',5'-cyclic-AMP phosphodiesterase 4A (Homo sapiens, UniProt P27815); type: functional
Sequence of 3',5'-cyclic-AMP phosphodiesterase 4A (P27815 whole entry): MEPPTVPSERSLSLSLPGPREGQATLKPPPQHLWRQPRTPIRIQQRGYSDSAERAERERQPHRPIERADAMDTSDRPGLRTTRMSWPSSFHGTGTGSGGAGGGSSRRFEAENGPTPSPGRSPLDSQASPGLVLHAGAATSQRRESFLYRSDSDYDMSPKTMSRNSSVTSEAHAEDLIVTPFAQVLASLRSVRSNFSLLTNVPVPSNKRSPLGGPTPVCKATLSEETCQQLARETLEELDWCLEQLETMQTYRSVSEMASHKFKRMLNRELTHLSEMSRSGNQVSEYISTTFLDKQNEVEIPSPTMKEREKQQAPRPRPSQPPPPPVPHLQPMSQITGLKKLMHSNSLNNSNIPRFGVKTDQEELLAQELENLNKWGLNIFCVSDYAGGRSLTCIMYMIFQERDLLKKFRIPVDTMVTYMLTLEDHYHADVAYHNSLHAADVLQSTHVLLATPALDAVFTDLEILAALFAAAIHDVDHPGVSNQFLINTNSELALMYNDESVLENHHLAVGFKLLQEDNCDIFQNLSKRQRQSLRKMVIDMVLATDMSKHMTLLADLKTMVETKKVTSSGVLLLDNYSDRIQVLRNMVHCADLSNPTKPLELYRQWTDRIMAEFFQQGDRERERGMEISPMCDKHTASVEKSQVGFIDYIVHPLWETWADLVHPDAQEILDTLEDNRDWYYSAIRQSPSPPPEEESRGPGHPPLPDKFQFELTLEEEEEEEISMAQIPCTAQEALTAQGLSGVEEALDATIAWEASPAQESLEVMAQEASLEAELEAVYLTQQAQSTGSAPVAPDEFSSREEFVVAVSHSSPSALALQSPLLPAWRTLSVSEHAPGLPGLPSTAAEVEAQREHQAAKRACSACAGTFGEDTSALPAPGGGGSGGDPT

D(1A) dopamine receptor = D(1A) dopamine receptor (Homo sapiens, UniProt P21728)
Sequence of D(1A) dopamine receptor (P21728 whole entry): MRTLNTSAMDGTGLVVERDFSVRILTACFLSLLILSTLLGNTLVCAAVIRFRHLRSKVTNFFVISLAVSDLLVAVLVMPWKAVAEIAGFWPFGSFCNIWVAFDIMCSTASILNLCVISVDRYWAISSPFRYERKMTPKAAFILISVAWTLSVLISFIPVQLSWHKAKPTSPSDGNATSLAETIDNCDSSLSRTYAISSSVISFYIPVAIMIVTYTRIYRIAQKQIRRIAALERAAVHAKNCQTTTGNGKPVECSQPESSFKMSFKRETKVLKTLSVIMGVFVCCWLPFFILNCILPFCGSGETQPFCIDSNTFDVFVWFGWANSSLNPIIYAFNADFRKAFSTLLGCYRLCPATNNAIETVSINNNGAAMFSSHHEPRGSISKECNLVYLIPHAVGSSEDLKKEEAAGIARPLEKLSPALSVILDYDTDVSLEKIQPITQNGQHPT

[9] = molecular target: 5-hydroxytryptamine receptor 2B (Homo sapiens, UniProt P41595); type: functional, cell-based
Sequence of 5-hydroxytryptamine receptor 2B (P41595 whole entry): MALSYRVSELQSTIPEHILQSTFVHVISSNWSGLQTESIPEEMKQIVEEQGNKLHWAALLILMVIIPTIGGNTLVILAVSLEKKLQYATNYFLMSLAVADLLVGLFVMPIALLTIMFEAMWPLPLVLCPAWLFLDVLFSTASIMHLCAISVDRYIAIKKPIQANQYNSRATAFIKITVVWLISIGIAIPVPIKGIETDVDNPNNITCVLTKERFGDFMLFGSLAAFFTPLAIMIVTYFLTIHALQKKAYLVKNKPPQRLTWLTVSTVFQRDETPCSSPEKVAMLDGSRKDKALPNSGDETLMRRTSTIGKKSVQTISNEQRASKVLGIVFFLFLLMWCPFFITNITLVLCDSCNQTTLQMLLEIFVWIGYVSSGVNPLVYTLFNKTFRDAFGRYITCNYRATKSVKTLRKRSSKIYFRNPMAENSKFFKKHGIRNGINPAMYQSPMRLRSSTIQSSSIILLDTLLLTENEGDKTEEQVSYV

[10] = molecular target: T4, Alpha-1A adrenergic receptor; type: functional, cell-based; remark: listed apart in the source
Thromboxane A2 receptor [11] = molecular target: T1, Thromboxane A2 receptor; type: functional, cell-based; remark: listed apart in the source
Mu-type opioid receptor = Mu-type opioid receptor (Homo sapiens, UniProt P35372)
Sequence of Mu-type opioid receptor (P35372 whole entry): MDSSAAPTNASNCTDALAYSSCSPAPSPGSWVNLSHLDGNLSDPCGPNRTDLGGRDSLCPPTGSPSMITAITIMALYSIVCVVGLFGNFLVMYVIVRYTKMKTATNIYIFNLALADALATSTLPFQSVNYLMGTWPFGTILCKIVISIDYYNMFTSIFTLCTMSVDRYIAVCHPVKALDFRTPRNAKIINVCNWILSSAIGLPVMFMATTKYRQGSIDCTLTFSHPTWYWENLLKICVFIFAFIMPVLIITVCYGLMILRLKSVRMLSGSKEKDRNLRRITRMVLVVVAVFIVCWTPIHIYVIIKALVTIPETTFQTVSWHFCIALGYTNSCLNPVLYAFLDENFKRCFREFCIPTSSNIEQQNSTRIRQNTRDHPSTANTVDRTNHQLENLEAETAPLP

Histamine H3 receptor = Histamine H3 receptor (Homo sapiens, UniProt Q9Y5N1)
Sequence of Histamine H3 receptor (Q9Y5N1 whole entry): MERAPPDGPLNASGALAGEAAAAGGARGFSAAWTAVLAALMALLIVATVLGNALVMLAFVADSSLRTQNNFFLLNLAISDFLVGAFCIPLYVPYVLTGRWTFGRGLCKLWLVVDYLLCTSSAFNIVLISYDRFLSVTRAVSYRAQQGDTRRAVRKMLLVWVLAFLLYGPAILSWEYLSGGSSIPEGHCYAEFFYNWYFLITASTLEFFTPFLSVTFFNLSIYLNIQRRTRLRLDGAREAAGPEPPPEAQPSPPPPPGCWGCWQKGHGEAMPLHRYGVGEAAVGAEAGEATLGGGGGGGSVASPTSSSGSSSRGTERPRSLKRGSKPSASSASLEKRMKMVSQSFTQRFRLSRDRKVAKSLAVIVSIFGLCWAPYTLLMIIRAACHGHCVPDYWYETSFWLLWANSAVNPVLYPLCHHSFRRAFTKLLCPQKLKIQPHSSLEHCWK

Prothrombin = Prothrombin (Homo sapiens, UniProt P00734); type: functional
[12] = molecular target: T2, Prostaglandin G/H synthase 1; type: functional; remark: listed apart in the source
[13] = molecular target: T5, Alpha-2A adrenergic receptor (Homo sapiens, UniProt P08913)
T5 sequence (P08913 whole entry): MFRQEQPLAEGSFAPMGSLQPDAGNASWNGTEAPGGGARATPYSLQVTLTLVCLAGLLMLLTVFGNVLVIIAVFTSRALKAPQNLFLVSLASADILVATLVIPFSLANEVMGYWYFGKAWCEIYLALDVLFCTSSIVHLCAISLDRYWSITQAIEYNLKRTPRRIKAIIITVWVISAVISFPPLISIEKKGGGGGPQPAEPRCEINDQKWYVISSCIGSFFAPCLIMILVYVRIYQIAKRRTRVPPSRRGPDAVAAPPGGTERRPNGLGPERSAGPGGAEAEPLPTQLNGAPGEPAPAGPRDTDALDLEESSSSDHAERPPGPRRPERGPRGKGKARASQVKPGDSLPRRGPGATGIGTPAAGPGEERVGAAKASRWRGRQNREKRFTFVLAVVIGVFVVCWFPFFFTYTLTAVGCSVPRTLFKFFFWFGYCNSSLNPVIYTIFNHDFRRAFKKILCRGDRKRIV

Acetylcholinesterase = Acetylcholinesterase (Homo sapiens, UniProt P22303); type: functional
Sequence of Acetylcholinesterase (P22303 whole entry): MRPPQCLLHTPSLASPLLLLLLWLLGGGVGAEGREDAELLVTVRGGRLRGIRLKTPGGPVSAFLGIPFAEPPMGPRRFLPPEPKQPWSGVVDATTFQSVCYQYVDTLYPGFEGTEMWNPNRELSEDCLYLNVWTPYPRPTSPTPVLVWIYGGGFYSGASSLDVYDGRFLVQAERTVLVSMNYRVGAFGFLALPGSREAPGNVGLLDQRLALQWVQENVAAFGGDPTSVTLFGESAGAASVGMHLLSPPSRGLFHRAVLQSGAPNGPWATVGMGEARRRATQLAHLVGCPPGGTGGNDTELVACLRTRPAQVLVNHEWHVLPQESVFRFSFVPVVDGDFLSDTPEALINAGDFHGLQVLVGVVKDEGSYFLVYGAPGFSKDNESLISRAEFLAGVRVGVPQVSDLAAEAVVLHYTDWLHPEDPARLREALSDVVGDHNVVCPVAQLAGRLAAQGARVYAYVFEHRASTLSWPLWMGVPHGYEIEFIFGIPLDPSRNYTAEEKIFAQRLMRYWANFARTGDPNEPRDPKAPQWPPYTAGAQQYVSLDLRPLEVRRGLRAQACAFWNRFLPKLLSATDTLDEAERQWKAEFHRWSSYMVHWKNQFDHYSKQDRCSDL
Note: assay procedure not described here.

Sequence of D(3) dopamine receptor (P35462 whole entry): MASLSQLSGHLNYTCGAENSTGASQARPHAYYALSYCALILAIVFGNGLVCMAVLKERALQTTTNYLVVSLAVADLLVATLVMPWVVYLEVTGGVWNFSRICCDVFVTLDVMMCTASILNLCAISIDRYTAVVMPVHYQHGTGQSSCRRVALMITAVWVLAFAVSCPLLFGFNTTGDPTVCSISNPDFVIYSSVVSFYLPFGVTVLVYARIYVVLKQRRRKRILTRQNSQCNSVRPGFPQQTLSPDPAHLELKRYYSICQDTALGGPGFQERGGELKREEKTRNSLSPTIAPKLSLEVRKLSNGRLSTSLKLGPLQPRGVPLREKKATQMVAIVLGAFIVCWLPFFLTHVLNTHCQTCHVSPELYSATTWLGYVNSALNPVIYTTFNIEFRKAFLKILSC
Sequence of Sodium-dependent dopamine transporter (Q01959 whole entry): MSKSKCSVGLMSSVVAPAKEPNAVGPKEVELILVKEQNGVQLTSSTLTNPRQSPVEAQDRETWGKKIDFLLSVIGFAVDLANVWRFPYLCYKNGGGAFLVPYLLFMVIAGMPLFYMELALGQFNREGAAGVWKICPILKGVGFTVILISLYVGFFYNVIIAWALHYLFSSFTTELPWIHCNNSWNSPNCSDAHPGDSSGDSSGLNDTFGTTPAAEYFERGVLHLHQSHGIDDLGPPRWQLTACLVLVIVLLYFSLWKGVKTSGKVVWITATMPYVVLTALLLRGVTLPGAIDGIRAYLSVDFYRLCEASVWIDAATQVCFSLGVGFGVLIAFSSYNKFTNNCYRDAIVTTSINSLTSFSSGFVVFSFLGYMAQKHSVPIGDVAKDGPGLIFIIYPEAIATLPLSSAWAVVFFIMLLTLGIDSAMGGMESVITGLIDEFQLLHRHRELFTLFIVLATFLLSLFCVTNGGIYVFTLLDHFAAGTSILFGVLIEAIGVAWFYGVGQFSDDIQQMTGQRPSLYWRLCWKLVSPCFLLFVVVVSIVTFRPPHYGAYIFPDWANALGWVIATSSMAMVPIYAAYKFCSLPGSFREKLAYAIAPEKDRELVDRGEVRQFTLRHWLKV

## CC(=O)OCC(=O)[C@@]1(O)CC[C@H]2[C@@H]3C[C@H](C)C4=CC(=O)C=C[C@]4(C)[C@H]3[C@@H](O)C[C@@]21C [METHYLPREDNISOLONE ACETATE]
[1]
  AC50: > 30 µM
D(3) dopamine receptor
  AC50: > 30 µM
Thromboxane A2 receptor [2]
  AC50: > 30 µM
[3]
  AC50: > 30 µM
[4]
  AC50: > 30 µM
[5]
  AC50: > 30 µM
Adenosine receptor A3
  AC50: > 30 µM
[6]
  AC50: > 30 µM
[7]
  AC50: > 30 µM
[8]
  AC50: > 30 µM
D(1A) dopamine receptor
  AC50: > 30 µM
[9]
  AC50: > 30 µM
[10]
  AC50: > 30 µM
Thromboxane A2 receptor [11]
  AC50: > 30 µM
Mu-type opioid receptor
  AC50: > 30 µM
Histamine H3 receptor
  AC50: > 30 µM
Prothrombin
  AC50: 11.9 µM
[12]
  AC50: > 30 µM
[13]
  AC50: > 30 µM
Acetylcholinesterase
  AC50: > 30 µM

## COc1ccc(C(=O)c2ccccc2)c(O)c1 [OXYBENZONE]
[1]
  AC50: 16.5 µM
D(3) dopamine receptor
  AC50: > 30 µM
Thromboxane A2 receptor [2]
  AC50: > 10 µM
[3]
  AC50: 11.6 µM
[4]
  AC50: > 30 µM
[5]
  AC50: > 30 µM
[6]
  AC50: > 10 µM
[7]
  AC50: > 30 µM
[8]
  AC50: 18.1 µM
D(1A) dopamine receptor
  AC50: > 30 µM
[9]
  AC50: > 30 µM
[10]
  AC50: > 30 µM
Thromboxane A2 receptor [11]
  AC50: > 30 µM
Mu-type opioid receptor
  AC50: > 30 µM
Histamine H3 receptor
  AC50: > 30 µM
Prothrombin
  AC50: > 30 µM
[12]
  AC50: > 30 µM
[13]
  AC50: > 30 µM
Acetylcholinesterase
  AC50: > 30 µM

## CNC(=O)c1cnn(-c2nc(N)c3ncn([C@@H]4O[C@H](CO)[C@@H](O)[C@H]4O)c3n2)c1 [REGADENOSON ANHYDROUS]
[1]
  AC50: > 30 µM
D(3) dopamine receptor
  AC50: > 30 µM
Thromboxane A2 receptor [2]
  AC50: > 30 µM
[3]
  AC50: > 30 µM
[4]
  AC50: > 30 µM
[5]
  AC50: > 30 µM
Adenosine receptor A3
  AC50: 0.481 µM
[6]
  AC50: > 30 µM
[7]
  AC50: > 30 µM
[8]
  AC50: > 30 µM
D(1A) dopamine receptor
  AC50: > 30 µM
[9]
  AC50: > 30 µM
[10]
  AC50: 28.2 µM
Thromboxane A2 receptor [11]
  AC50: > 30 µM
Mu-type opioid receptor
  AC50: > 30 µM
Histamine H3 receptor
  AC50: > 30 µM
Prothrombin
  AC50: > 30 µM
[12]
  AC50: > 30 µM
[13]
  AC50: > 30 µM
Acetylcholinesterase
  AC50: > 30 µM

## CC1(C)CCC(C)(C)c2cc(NC(=O)c3ccc(C(=O)O)cc3)ccc21 [TAMIBAROTENE]
[1]
  AC50: > 30 µM
D(3) dopamine receptor
  AC50: > 30 µM
Thromboxane A2 receptor [2]
  AC50: 9.94 µM
[3]
  AC50: > 30 µM
[4]
  AC50: > 30 µM
[5]
  AC50: > 30 µM
Adenosine receptor A3
  AC50: 29.8 µM
[6]
  AC50: > 10 µM
[7]
  AC50: > 30 µM
[8]
  AC50: > 30 µM
D(1A) dopamine receptor
  AC50: > 30 µM
[9]
  AC50: > 30 µM
[10]
  AC50: > 30 µM
Thromboxane A2 receptor [11]
  AC50: 28.7 µM
Mu-type opioid receptor
  AC50: > 30 µM
Histamine H3 receptor
  AC50: > 30 µM
Prothrombin
  AC50: > 30 µM
[12]
  AC50: > 30 µM
[13]
  AC50: > 30 µM
Acetylcholinesterase
  AC50: > 30 µM

## CC(=O)O[C@]1(C(C)=O)CC[C@H]2[C@@H]3CCC4=CC(=O)CCC4=C3[C@@H](c3ccc(N(C)C)cc3)C[C@@]21C [ULIPRISTAL ACETATE]
[1]
  AC50: > 30 µM
D(3) dopamine receptor
  AC50: > 30 µM
Thromboxane A2 receptor [2]
  AC50: > 30 µM
[3]
  AC50: > 30 µM
[4]
  AC50: > 30 µM
[5]
  AC50: > 30 µM
[6]
  AC50: > 30 µM
[7]
  AC50: > 30 µM
[8]
  AC50: > 30 µM
D(1A) dopamine receptor
  AC50: > 30 µM
[9]
  AC50: > 30 µM
[10]
  AC50: > 30 µM
Thromboxane A2 receptor [11]
  AC50: > 30 µM
Mu-type opioid receptor
  AC50: 22.5 µM
Histamine H3 receptor
  AC50: > 30 µM
Prothrombin
  AC50: > 30 µM
[12]
  AC50: > 30 µM
[13]
  AC50: > 30 µM
Acetylcholinesterase
  AC50: > 30 µM
